The values that follow come from patent publication US11111243B2, “Azaindole compounds as histone methyltransferase inhibitors” (GLOBAL BLOOD THERAPEUTICS, INC., priority 2017, dated 2021).

Counter-ions that a name gives are not always drawn.

By IC50 is commonly meant the concentration needed to halve the response being measured. A higher IC50 goes with weaker potency.

For this assay, the target named is T1, G9a (Homo sapiens, UniProt Q96KQ7).
T1 sequence (Q96KQ7 1-1210): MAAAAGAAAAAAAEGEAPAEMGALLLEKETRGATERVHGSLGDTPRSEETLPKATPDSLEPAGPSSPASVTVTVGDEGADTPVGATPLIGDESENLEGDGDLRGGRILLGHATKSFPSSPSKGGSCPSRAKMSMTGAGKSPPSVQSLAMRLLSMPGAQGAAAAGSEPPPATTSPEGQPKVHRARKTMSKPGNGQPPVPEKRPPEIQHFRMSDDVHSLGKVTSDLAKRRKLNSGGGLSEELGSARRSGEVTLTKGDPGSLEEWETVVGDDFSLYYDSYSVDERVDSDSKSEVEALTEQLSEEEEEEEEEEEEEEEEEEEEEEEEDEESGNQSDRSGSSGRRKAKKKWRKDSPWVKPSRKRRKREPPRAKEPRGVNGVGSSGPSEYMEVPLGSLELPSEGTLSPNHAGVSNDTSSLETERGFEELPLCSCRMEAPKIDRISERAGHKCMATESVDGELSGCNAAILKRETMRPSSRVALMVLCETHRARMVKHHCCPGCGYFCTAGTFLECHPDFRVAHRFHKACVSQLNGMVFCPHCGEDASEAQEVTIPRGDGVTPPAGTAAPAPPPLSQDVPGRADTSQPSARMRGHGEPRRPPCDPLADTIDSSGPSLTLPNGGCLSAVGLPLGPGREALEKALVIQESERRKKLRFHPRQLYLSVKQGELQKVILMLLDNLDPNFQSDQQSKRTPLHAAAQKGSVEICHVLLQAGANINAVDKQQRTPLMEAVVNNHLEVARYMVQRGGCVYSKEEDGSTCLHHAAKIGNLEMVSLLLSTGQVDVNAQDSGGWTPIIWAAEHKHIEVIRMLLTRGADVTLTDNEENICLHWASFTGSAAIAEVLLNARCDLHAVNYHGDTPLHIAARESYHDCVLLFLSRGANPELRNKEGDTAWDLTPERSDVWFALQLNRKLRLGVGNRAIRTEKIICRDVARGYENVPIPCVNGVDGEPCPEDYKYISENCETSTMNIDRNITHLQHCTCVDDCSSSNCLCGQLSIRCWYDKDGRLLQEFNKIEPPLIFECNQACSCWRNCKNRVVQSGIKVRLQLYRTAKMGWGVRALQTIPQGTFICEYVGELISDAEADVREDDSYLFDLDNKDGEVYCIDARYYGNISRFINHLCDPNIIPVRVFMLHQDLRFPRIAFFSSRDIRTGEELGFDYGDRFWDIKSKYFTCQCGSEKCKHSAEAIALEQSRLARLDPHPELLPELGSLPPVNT
Put plainly: G9a AlphaLISA enzymatic activity assay. It counts as biochemical. The settings on record: 0.15 nM G9a, 10 uM S-adenosyl-methionine, 100 nM biotinylated histone 3 peptide (1-21), 1 h room temperature. An excerpt:
The G9a AlphaLISA assay was used to detect the methyl modifications of a biotinylated histone H3 peptide by the compounds. These modifications are done by the histone methyl transferase activity of the G9a enzyme. The assay consists of reading a chemiluminescent signal at 615 nm; this signal is generated by a laser excitation at 680 nm that transfers a reactive singlet oxygen between the donor beads and acceptor beads. Donor beads are streptavidin conjugated and bind to the biotin on the peptide. Acceptor beads are conjugated with an antibody that recognizes the specific G9a methyl mark on the peptide. If there is a methyl mark on the peptide, the acceptor beads will bind to the peptide. Upon binding, the acceptor beads will be in close proximity (<200 nm) of the donor beads and when the donor beads are excited, the transfer of the oxygen can occur and a strong signal will be generated. If there is no methyl mark, the interaction between beads will not occur and signal will be at background levels.
For the assay, the following buffer was used to set up reactions: 50 mM Tris-HCl pH9, 50 mM NaCl, 0.01% Tween-20 and 1 mM DTT (added fresh prior to starting the reactions). The assay is set up by adding a final concentration of 0.15 nM G9a, 10 uM S-adenosyl-methionine and, 100 nM biotinylated histone 3 peptide (1-21). The reaction is incubated at room temperature for 1 h, and subsequently quenched by the addition of the acceptor beads (anti-H3k9me2 AlphaLISA acceptor beads, PerkinElmer #AL117) at a final concentration of 20 ug/mL. The acceptor beads are incubated for 1 h. After 1 h, the donor beads are added at a final concentration of 20 ug/mL (Alpha Streptavidin donor beads, PerkinElmer #6760002). Donor beads are incubated for 0.5 h. Both donor and acceptor beads are resuspended in AlphaLISA 5× Epigenetics Buffer 1 Kit (PerkinElmer #AL008) prior to addition to the reaction. All manipulations and incubations with the donor and acceptor beads are done in subdued light. Signal is detected in an EnVision plate reader in Alpha mode (See ACS Med Chem Lett. 2014 Jan. 2; 5(2):205-9)
Percent inhibition was calculated for each compound dilution and the concentration that produced 50% inhibition was calculated. This value is presented as the IC50.
A general note: In Alpha technology, singlet oxygen from a donor bead excites a nearby acceptor bead.

In turn, `COc1cc2c(cc1OCCN(C)C)[nH]c1ccncc12` [Compound 70, [2-({8-methoxy-5H-pyrido[4,3-b]indol-7-yl}oxy)ethyl]dimethylamine hydrochloride] yielded an IC50 of 400 nM.

`COc1cc2c(cc1OCCN1CCCC1)[nH]c1ccncc12` [Compound 71, 1-[2-({8-methoxy-5H-pyrido[4,3-b]indol-7-yl}oxy)ethyl]pyrrolidine hydrochloride] gave an IC50 of 52 nM.

For `COc1cc2c(cc1OCCCN1CCC1)[nH]c1ccncc12` [Compound 72, 1-[3-({8-methoxy-5H-pyrido[4,3-b]indol-7-yl}oxy)propyl]azetidine hydrochloride], the IC50 was found to be 9.1 nM.

Consider `COc1cc2c(cc1OCCCN1CCCC1)[nH]c1ccnc(OC3CCOCC3)c12` [Compound 73, 1-(3-{[8-methoxy-1-(oxan-4-yloxy)-5H-pyrido[4,3-b]indol-7-yl]oxy}propyl)pyrrolidine trifluoroacetate], for which half-maximal inhibition (IC50) required 960 nM.

The compound `COc1cc2c(cc1OCCCN1CCCC1)[nH]c1ccnc(OC3CCNC3)c12` (centres unmarked) [Compound 74, 3-({8-methoxy-7-[3-(pyrrolidin-1-yl)propoxy]-5H-pyrido[4,3-b]indol-1-yl}oxy)pyrrolidine bis(2,2,2-trifluoroacetate)] showed an IC50 of 6.7 nM.

`COc1cc2c(cc1OCCCN1CCCC1)[nH]c1ccnc(OC(C)C)c12` [Compound 75, 1-(3-{[8-methoxy-1-(propan-2-yloxy)-5H-pyrido[4,3-b]indol-7-yl]oxy}propyl)pyrrolidine trifluoroacetate] displayed an IC50 of 1000 nM.

Consider `COc1cc2c(cc1OCCCN1CCCC1)[nH]c1ccnc(-n3ccnc3)c12` [Compound 76, 1-{8-methoxy-7-[3-(pyrrolidin-1-yl)propoxy]-5H-pyrido[4,3-b]indol-1-yl}-1H-imidazole trifluoroacetate], for which the IC50 was 960 nM.

For `COc1cc2c(cc1OCCCN1CCCC1)[nH]c1ccnc(-n3cccn3)c12` [Compound 77, 1-[8-methoxy-7-[3-(pyrrolidin-1-yl)propoxy]-5H-pyrido[4,3-b]indol-1-yl]-1H-pyrazole trifluoroacetate], the IC50 came out at 2500 nM. This IC50 lies about 2.6-fold higher than the previous one.

Take `COc1cc2c(cc1OCCCN1CCCC1)[nH]c1ccnc(-c3cncs3)c12` [Compound 78, 5-{8-methoxy-7-[3-(pyrrolidin-1-yl)propoxy]-5H-pyrido[4,3-b]indol-1-yl}-1,3-thiazole trifluoroacetate]: half-maximal inhibition (IC50) was put at 260 nM.

With `COc1cc2c(cc1OCCCN1CCCC1)[nH]c1cc(CO)ncc12` [Compound 79, {8-methoxy-7-[3-(pyrrolidin-1-yl)propoxy]-5H-pyrido[4,3-b]indol-3-yl}methanol trifluoroacetate], the half-maximal inhibitory concentration (IC50) is 140 nM.

Turning to `COc1cc2c(cc1OCCCN1CCCC1)[nH]c1cc(O)ncc12` [Compound 80, 8-methoxy-7-(3-(pyrrolidin-1-yl)propoxy)-5H-pyrido[4,3-b]indol-3-ol formate], the IC50 is more than 10000 nM.

Consider `COc1cc2c(cc1OCCCN1CCCC1)[nH]c1ccnc(-c3cn[nH]c3)c12` [Compound 81, 4-[8-methoxy-7-[3-(pyrrolidin-1-yl)propoxy]-5H-pyrido[4,3-b]indol-1-yl]-1H-pyrazole hydrochloride], for which the IC50 was 22 nM.

Consider `COc1cc2c(cc1OCCCN1CCCC1)[nH]c1ccnc(CO)c12` [Compound 82, 8-methoxy-7-[3-(pyrrolidin-1-yl)propoxy]-5H-pyrido[4,3-b]indol-1-yl]methanol trifluoroacetate], for which the IC50 turned out to be 4.5 nM. Against the preceding compound, the IC50 is about 4.9-fold lower.

The compound `COc1cc2c(cc1OCCCN1CCCC1)[nH]c1ccnc(-c3cnc[nH]3)c12` [Compound 84, 1-(1H-imidazol-5-yl)-8-methoxy-7-(3-(pyrrolidin-1-yl)propoxy)-5H-pyrido[4,3-b]indole trifluoroacetate] showed an IC50 of 17 nM.

With `CCN(CC)c1nccc2[nH]c3cc(OCCCN4CCCC4)c(OC)cc3c12` [Compound 85, N,N-diethyl-8-methoxy-7-[3-(pyrrolidin-1-yl)propoxy]-5H-pyrido[4,3-b]indol-1-amine bis formate], the IC50 was 17 nM.

`COc1cc2c(cc1OCCCN1CCCC1)[nH]c1c(Cl)cnc(N3CCCC3)c12` [Compound 86, 1-{4-chloro-8-methoxy-7-[3-(pyrrolidin-1-yl)propoxy]-5H-pyrido[4,3-b]indol-1-yl}pyrrolidine hydrochloride]: the 50% inhibitory concentration (IC50) was found to be 180 nM. Against the preceding compound, the IC50 is about 11-fold higher.

`COc1cc2c(cc1OCC1CCCNC1)[nH]c1ccncc12` (centres unmarked) [Compound 87, 3-[({8-methoxy-5H-pyrido[4,3-b]indol-7-yl}oxy)methyl]piperidine hydrochloride]: the IC50 came to 240 nM.

For `COc1cc2c(cc1OCCCN(C)C)[nH]c1ccncc12` [Compound 88, [3-({8-methoxy-5H-pyrido[4,3-b]indol-7-yl}oxy)propyl]dimethylamine hydrochloride], the IC50 amounted to 12 nM.

With `COc1cc2c(cc1OCCCN1CCCC1)[nH]c1c(C)cnc(N3CCCC3)c12` [Compound 89, 1-{8-methoxy-4-methyl-7-[3-(pyrrolidin-1-yl)propoxy]-5H-pyrido[4,3-b]indol-1-yl}pyrrolidine hydrochloride], the IC50 stood at 12 nM. This counts as double-digit nanomolar.

With `COc1cc2c(cc1OCCCN(C)C)[nH]c1ccnc(C)c12` [Compound 90, [3-({8-methoxy-1-methyl-5H-pyrido[4,3-b]indol-7-yl}oxy)propyl]dimethylamine hydrochloride], the half-maximal inhibitory concentration (IC50) was 7.1 nM.

In the case of `CCc1nccc2[nH]c3cc(OCCCN(C)C)c(OC)cc3c12` [Compound 91, [3-({1-ethyl-8-methoxy-5H-pyrido[4,3-b]indol-7-yl}oxy)propyl]dimethylamine hydrochloride], 6.7 nM corresponded to half-maximal inhibition (IC50).

`COc1cc2c(cc1OCCCN(C)C)[nH]c1ccnc(N3CCCC3)c12` [Compound 92, (3-{[8-methoxy-1-(pyrrolidin-1-yl)-5H-pyrido[4,3-b]indol-7-yl]oxy}propyl)dimethylamine hydrochloride] returned an IC50 of 51 nM.

`COc1cc2c(cc1OCCCN(C)C)[nH]c1ccnc(N(C)C)c12` [Compound 93, 7-[3-(dimethylamino)propoxy)-8-methoxy-N,N-dimethyl-5H-pyrido[4,3-b]indol-1-amine hydrochloride] had an IC50 of 61 nM.

As for `COc1cc2c3cnccc3n(C)c2cc1OCCCN1CCCC1` [Compound 94, 1-[3-({8-methoxy-5-methyl-5H-pyrido[4,3-b]indol-7-yl}oxy)propyl]pyrrolidine hydrochloride], inhibition was half-maximal at 54 nM (IC50).

Turning to `COc1cc2c(cc1OCCCN(C)C)[nH]c1ccnc(SC)c12` [Compound 95, (3-{[8-methoxy-1-(methylsulfanyl)-5H-pyrido[4,3-b]indol-7-yl]oxy}propyl)dimethylamine hydrochloride], 560 nM corresponded to half-maximal inhibition (IC50). Compared with the last compound, the IC50 is about 10-fold higher.

As for `COCCOc1nccc2[nH]c3cc(OCCCN4CCCC4)c(OC)cc3c12` [Compound 96, 1-(3-{[8-methoxy-1-(2-methoxyethoxy)-5H-pyrido[4,3-b]indol-7-yl]oxy}propyl)pyrrolidine trifluoroacetate], the IC50 is 3300 nM.
